Square brackets hold non-standard residues; d marks the D form. Peptide text beside a SMILES is read from it. * marks the point of attachment. Cys(free,S-linked) = N[C@@H](CS*)C(=O)O; pGlu = O=C1CC[C@@H](C(=O)O)N1
System: C57BL/6 mice
Experiment: one-trial passive avoidance task, amnesia induced by cycloheximide
Format: in vivo
Settings: 24 h after footshock and cycloheximide 20 mg/kg sc
Protocol: The effect on memory process was tested in a one-trial passive avoidance task in C57BL/6 mice. The learning procedure was fundamentally the same as that used by Burbach et al (Science; 221, 1310-1312, 1983). The apparatus consisted of an illuminated compartment attached to a dark one with grid floor. Mice were placed in the light compartment and allowed to enter the dark one. When mice entered the dark compartment, an electric footshock (0.4 mA, 3 sec) was delivered. Immediately after receiving a footshock, mice were administered with cycloheximide (20 mg/kg, sc), a protein synthesis inhibitor, and a retention test trial was carried out 24 hours later. Retention of passive avoidance behavior was measured by the latency to reenter the dark compartment after placing mice in the light compartment. Five minutes before the testing, mice were treated with 5 μl of peptide in a dose of 10 pg and 10 ng by intracerebroventricular injection through a hypodermic needle attached to a 25 μl syringe. Compounds of the present invention were dissolved in saline. […] Median latencies in peptide-treated groups were expressed as a percentage of that in control, and either Mann-WhitneyU test for latencies or chi-square test for percent of mice showing latencies longer than 50 seconds was used in statistical analysis. Number of mice used in each group was 9-22.

[1] = intracerebroventricular injection (10 pg and 10 ng tested; dose not stated per value) 5 min before retention test

**Q.** How did the “median latency to reenter the dark compartment, as a percentage of that in control” value (dose of 10 pg, intracerebroventricular injection 5 min before retention test) turn out when `N=C(N)NCCC[C@H](NC(=O)[C@@H]1CCCN1C(=O)[C@H](CSSC[C@H](N)C(=O)O)NC(=O)[C@H](CC(N)=O)NC(=O)[C@@H]1CCC(=O)N1)C(=O)NCC(N)=O` [reference compound] ([pGlu]NC(Cys(free,S-linked))PRG-NH2) was run?
**A.** Its value is 191 % of control.

**Q.** `C[C@H](NC(=O)[C@H](CSSC[C@H](N)C(=O)O)NC(=O)[C@H](CC(N)=O)NC(=O)[C@@H]1CCC(=O)N1)C(=O)N[C@H](CCCCN)C(=O)O` [Example 8] ([pGlu]NC(Cys(free,S-linked))A[dK]-OH) was tested. Which “median latency to reenter the dark compartment, as a percentage of that in control” value [1] did it give?
**A.** The value was 179%.

**Q.** With `NCCCC[C@@H](NC(=O)[C@@H]1CCCN1C(=O)[C@H](CSSC[C@H](N)C(=O)O)NC(=O)[C@H](CC(N)=O)NC(=O)[C@@H]1CCC(=O)N1)C(=O)O` [Example 1] ([pGlu]NC(Cys(free,S-linked))P[dK]-OH) as the compound, how does the “median latency to reenter the dark compartment, as a percentage of that in control” value [1] read?
**A.** The value was 238%.

**Q.** For `NCCCC[C@@H](NC(=O)[C@H]1CCCN1C(=O)[C@H](CSSC[C@H](N)C(=O)O)NC(=O)[C@H](CC(N)=O)NC(=O)[C@@H]1CCC(=O)N1)C(=O)O` [Example 6] ([pGlu]NC(Cys(free,S-linked))[dP][dK]-OH), which “median latency to reenter the dark compartment, as a percentage of that in control” value [1] is on record?
**A.** The value was 238%.
